In ChEMBL document CHEMBL4665905, “2-Amino-N-heteroaryl-nicotimamides as Na1.8 Inhibitors” (ACS Med Chem Lett, 2020):

Target: Sodium channel protein type 10 subunit alpha (Homo sapiens, UniProt Q9Y5Y9)
Experiment: Inhibition of human Nav1.8 expressed in HEK293 cells by whole cell patch clamp assay
Assay type: cell-based

Sodium channel protein type 10 subunit alpha, sequence (Q9Y5Y9 whole entry): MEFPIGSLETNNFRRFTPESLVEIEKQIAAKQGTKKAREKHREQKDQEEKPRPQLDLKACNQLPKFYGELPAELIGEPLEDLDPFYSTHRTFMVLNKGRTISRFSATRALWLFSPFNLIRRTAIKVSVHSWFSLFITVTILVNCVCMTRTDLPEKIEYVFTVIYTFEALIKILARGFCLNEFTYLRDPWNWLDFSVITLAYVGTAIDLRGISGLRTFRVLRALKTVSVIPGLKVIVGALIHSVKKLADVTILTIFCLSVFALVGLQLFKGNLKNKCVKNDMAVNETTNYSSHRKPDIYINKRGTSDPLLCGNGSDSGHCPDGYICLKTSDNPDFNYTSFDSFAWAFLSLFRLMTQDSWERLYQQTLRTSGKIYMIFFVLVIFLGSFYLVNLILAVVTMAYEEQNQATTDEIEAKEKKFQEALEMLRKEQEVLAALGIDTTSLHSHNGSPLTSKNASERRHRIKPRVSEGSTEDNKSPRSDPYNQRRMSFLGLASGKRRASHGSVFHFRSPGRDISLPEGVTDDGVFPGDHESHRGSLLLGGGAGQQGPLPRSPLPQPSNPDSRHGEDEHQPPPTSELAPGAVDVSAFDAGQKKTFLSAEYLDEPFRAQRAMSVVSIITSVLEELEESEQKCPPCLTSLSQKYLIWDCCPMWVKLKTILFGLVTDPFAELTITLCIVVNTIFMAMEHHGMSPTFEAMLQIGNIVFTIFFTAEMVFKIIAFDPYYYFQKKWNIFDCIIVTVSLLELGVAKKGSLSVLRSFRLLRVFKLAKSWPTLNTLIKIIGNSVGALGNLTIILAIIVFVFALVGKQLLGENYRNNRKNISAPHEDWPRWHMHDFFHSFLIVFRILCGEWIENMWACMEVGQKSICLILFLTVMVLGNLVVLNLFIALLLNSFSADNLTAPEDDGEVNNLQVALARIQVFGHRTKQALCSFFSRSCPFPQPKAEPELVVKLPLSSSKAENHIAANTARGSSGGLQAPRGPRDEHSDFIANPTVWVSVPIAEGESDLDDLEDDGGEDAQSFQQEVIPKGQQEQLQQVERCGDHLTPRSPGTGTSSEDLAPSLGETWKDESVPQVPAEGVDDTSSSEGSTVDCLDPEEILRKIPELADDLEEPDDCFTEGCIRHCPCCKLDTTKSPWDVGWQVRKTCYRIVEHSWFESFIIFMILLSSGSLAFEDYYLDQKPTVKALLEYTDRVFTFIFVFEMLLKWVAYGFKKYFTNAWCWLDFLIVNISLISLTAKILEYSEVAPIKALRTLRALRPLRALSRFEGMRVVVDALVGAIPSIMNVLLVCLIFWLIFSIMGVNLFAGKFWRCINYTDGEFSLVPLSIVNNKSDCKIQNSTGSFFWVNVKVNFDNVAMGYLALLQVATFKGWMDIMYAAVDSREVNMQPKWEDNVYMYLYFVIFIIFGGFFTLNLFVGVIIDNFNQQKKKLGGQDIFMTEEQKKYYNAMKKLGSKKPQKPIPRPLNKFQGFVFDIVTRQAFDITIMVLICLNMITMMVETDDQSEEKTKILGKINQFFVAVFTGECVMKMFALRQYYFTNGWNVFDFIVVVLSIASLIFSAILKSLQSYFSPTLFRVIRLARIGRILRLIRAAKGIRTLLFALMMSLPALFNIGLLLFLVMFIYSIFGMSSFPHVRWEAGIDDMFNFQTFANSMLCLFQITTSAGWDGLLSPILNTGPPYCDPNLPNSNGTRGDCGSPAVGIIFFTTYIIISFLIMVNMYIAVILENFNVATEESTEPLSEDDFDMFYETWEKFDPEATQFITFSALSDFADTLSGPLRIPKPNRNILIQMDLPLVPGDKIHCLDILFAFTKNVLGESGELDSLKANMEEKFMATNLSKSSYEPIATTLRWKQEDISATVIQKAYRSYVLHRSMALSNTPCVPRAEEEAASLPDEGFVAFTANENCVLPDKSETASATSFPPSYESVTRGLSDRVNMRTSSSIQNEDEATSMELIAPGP

IC50: 3.9 nM
SMILES: NS(=O)(=O)c1cc(NC(=O)c2cc(Cl)cnc2N2CCCC(F)(F)CC2)ccn1
